Earlier results as cited in patent US20130203858A1, “Fast-Dissolving Solid Pharmaceutical Form for Treating Bacterial Infections” (Nanocore Biotecnologia S.A., priority 2010, published 2013).

Key:
[1] = WO2009/061780 composition in the absence of PVP

CS(=O)(=O)c1ccc([C@@H](O)[C@@H](CF)NC(=O)C(Cl)Cl)cc1 [florfenicol, Florfenicol]
solubility in water: about 1.2 mg/mL | portion of the drug that solubilises in water (without addition of surfactants): about 20% | portion of the drug solubilized in water [1]: about 40%
